Data: patent publication US12215081B2, “Pharmaceutical intermediate” (ZAKLADY FARM[…] S.A., priority 2019, dated 2025)

Experiment: Stability of 4-(4-fluorobenzylamino)-1-methylpiperidine (oil) and its trihydrate stored in a sealed container, purity and impurities over time
Format: physicochemical
Conditions: for decrease in purity: crude oil, sealed container
Method: The stability of the crude 4-(4-fluorobenzylamino)-1-methylpiperidine oil obtained by the process described in Example 1 was also assessed.
The crude 4-(4-fluorobenzylamino)-1-methylpiperidine oil decreased in purity by 0.5% after 1 month and 0.7% after 2.5 months.

[1] = Batch 3, sealed container, 0 months
[2] = Batch 3, sealed container, 1 month
[3] = Batch 4, sealed container, 0 months
[4] = Batch 4, sealed container, 2.5 months

SMILES	stability on storage (decomposition) (stored under the same conditions as the amine oil (sealed container))	Amine purity [1]	impurity I (% impurity) [1]	impurity II (% impurity) [1]	impurity III (% impurity) [1]	Amine purity [2]	impurity I (% impurity) [2]	impurity II (% impurity) [2]	impurity III (% impurity) [2]	Amine purity [3]	impurity I (% impurity) [3]	impurity II (% impurity) [3]	impurity III (% impurity) [3]	Amine purity [4]	impurity I (% impurity) [4]	impurity II (% impurity) [4]	impurity III (% impurity) [4]	decrease in purity (after 1 month) [%]	decrease in purity (after 2.5 months) [%]
CN1CCC(NCc2ccc(F)cc2)CC1 [4-(4-fluorobenzylamino)-1-methylpiperidine trihydrate]	stable, and no decomposition was observed	–	–	–	–	–	–	–	–	–	–	–	–	–	–	–	–	–	–
CN1CCC(NCc2ccc(F)cc2)CC1 [4-(4-fluorobenzylamino)-1-methylpiperidine]	–	Amine - 98.17% pure	I/(0.21) %	II/(0.12) %	III/(0.27) %	Amine - 97.66% pure	I/(0.26) %	II/(0.21) %	III/(0.59) %	Amine - 97.82% pure	I/(0.23) %	II/(0.12) %	III/(0.68) %	Amine - 97.09% pure	I/(0.18) %	II/(0.14) %	III/(1.15) %	0.5	0.7
